SMILES strings stand for the structures.

RIPK2, sequence (O43353 whole entry): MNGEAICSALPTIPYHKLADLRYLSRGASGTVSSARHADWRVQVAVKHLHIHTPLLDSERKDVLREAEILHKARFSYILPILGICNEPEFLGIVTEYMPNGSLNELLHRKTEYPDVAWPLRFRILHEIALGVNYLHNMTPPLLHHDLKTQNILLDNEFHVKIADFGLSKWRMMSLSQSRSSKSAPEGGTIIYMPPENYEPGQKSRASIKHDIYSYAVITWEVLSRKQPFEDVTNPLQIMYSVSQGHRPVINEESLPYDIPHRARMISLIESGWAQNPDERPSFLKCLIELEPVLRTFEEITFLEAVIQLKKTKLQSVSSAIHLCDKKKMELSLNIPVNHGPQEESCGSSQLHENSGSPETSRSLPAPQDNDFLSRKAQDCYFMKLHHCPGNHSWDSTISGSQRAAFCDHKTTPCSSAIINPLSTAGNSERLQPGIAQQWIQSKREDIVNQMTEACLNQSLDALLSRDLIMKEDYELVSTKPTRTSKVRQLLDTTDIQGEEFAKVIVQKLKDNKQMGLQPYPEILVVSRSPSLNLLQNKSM

The assay has as its target RIPK2 (Homo sapiens (Human), UniProt O43353). Nature of the assay: RIPK2 inhibition, ADP-Glo Kinase Assay. In kind it is biochemical. Particulars: 8His-RIPK2 FL enzyme 8 nM, ATP 5 μM, 15 minutes pre-incubation, 60 minutes at 37° C., luminescence. In a few lines:
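Full-length 8His-RIPK2 (8 nM) preincubated 15 min at RT with compound (1% DMSO), then 5 μM ATP added for 60 min at 37 °C in HEPES pH 7.5 buffer with Mg2+/Mn2+. ADP measured by ADP-Glo luminescence; activity expressed as % of vehicle control, no-enzyme wells as low control.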
A general note: ADP-Glo turns the ADP formed in a reaction into a luminescent signal.
Usually IC50 stands for the concentration needed to halve the response being measured. A high value points to lower potency. With `Cc1ccc(C(=O)NC2CC2)cc1-c1cnn(-c2cncc(NCC3CCCO3)c2)c1` (centres unmarked) [Example 59, N-cyclopropyl-4-methyl-3-(1-{5-[(oxolan-2-ylmethyl)amino]pyridin-3-yl}-1H-pyrazol-4-yl)benzamide], the IC50 stood at 9.1 nM.
Under `COc1cncc(-n2cc(-c3cc(C(=O)NC4CC4)c(F)cc3C)cn2)c1` [Example 25, N-cyclopropyl-2-fluoro-5-[1-(5-methoxypyridin-3-yl)-1H-pyrazol-4-yl]-4-methylbenzamide] stands 3.7 nM.
Take `Cc1ccc(C(=O)NC2CC2)cc1-c1cnn(-c2cncc(NC3CCN(C4CCCOC4)CC3)c2)c1` (centres unmarked) [Example 161, N-cyclopropyl-4-methyl-3-[1-(5-{[1-(oxan-3-yl)piperidin-4-yl]amino}pyridin-3-yl)-1H-pyrazol-4-yl] benzamide]: the IC50 was determined as 1.5 nM.
Under `Cc1ccc(C(=O)NC2CC2)cc1-c1cnn(-c2cncc(NC(=O)NC(C)C)c2)c1` [Example 110, N-cyclopropyl-4-methyl-3-[1-(5-{[(propan-2-yl)carbamoyl]amino}pyridin-3-yl)-1H-pyrazol-4-yl] benzamide] stands 3.4 nM; under `Cc1ccc(C(=O)NC2CC2)cc1-c1cnn(-c2cncc(NC3CCN(C4CCOC4C)CC3)c2)c1` (centres unmarked) [Example 159, N-cyclopropyl-4-methyl-3-[1-(5-{[1-(2-methyloxolan-3-yl)piperidin-4-yl]amino}pyridin-3-yl)-1H-pyrazol-4-yl]benzamide], 1.8 nM.
On to `Cc1ccc(C(=O)NC2CC2)cc1-c1cnn(-c2cncc(OC[C@H]3CCCO3)c2)c1` [Example 150, N-cyclopropyl-4-methyl-3-(1-{5-[(2R)-oxolan-2-ylmethoxy]pyridin-3-yl}-1H-pyrazol-4-yl) benzamide], for which the IC50 was 7 nM.
`COC1COCCC1N1CCC(Nc2cncc(-n3cc(-c4cc(C(=O)NC5CC5)ccc4C)cn3)c2)CC1` (centres unmarked) [Example 163, N-cyclopropyl-3-[1-(5-{[1-(3-methoxyoxan-4-yl)piperidin-4-yl]amino}pyridin-3-yl)-1H-pyrazol-4-yl]-4-methylbenzamide] came in with an IC50 of 1.1 nM. This IC50 lies about 6.4-fold lower than the previous one.
In turn, `COc1cncc(-n2cnc(-c3cc(C(=O)NC4CC4)ccc3Cl)c2)c1` [Example 54, 4-chloro-N-cyclopropyl-3-[1-(5-methoxypyridin-3-yl)-1H-imidazol-4-yl]benzamide] displayed an IC50 of 41 nM.
In turn, `CC(=O)NC(C)(C)c1cncc(-n2cc(-c3cc(C(=O)NC4CC4)ccc3C)cn2)c1` [Example 50, N-cyclopropyl-3-{1-[5-(2-acetamidopropan-2-yl)pyridin-3-yl]-1H-pyrazol-4-yl}-4-methylbenzamide] had an IC50 of 570 nM.
In the case of `O=C(NC1CC1)c1cc(-c2cnn(-c3cncc(C4CC4)c3)c2)c(Cl)cc1F` [Example 104, 4-chloro-N-cyclopropyl-5-[1-(5-cyclopropylpyridin-3-yl)-1H-pyrazol-4-yl]-2-fluorobenzamide] it was 1.9 nM.
As to `CC(=O)N1CCC(N2CCC(Nc3cncc(-n4cc(-c5cc(C(=O)NC6CC6)ccc5C)cn4)c3)CC2)CC1` [Example 158, 3-[1-(5-{[1-(1-acetylpiperidin-4-yl)piperidin-4-yl]amino}pyridin-3-yl)-1H-pyrazol-4-yl]-N-cyclopropyl-4-methylbenzamide], the IC50 amounted to 1.2 nM.
Under `Cc1ccc(C(=O)NC2CC2)cc1-c1cnn(-c2cncc(O)c2)c1` [Example 95, N-cyclopropyl-3-[1-(5-hydroxypyridin-3-yl)-1H-pyrazol-4-yl]-4-methyl-benzamide] stands 6.1 nM.
Take `Cc1ccc(C(=O)NC2CC2)cc1-c1cnn(-c2cncc(NS(C)(=O)=O)c2)c1` [Example 122, N-cyclopropyl-3-[1-(5-methanesulfonamidopyridin-3-yl)-1H-pyrazol-4-yl]-4-methyl-benzamide]: the IC50 came to 9.5 nM. This IC50 lies about 1.6-fold higher than the previous one.
In the case of `CCO[C@H]1COC[C@@H]1Nc1cncc(-n2cc(-c3cc(C(=O)NC4CC4)ccc3C)cn2)c1` [Example 56, N-cyclopropyl-3-[1-(5-{[(3S,4R)-4-ethoxyoxolan-3-yl]amino}pyridin-3-yl)-1H-pyrazol-4-yl]-4-methyl-benzamide] it was 10 nM.
For `Cc1ccc(C(=O)NC2CC2)cc1-c1cnn(-c2cncc(NC3CCN(C4CCOC(C)C4)CC3)c2)c1` (centres unmarked) [Example 165, N-cyclopropyl-4-methyl-3-[1-(5-{[1-(2-methyloxan-4-yl)piperidin-4-yl]amino}pyridin-3-yl)-1H-pyrazol-4-yl]benzamide], the IC50 was determined as 1.2 nM.
Under `Cc1ccc(C(=O)NC2CC2)cc1-c1cnn(-c2cncc(OC3CCOC3)c2)c1` (centres unmarked) [Example 145, N-cyclopropyl-4-methyl-3-{1-[5-(oxolan-3-yloxy)pyridin-3-yl]-1H-pyrazol-4-yl}benzamide] stands 4.7 nM.
In the case of `Cc1cc(F)c(C(=O)NC2CC2)cc1-c1cnn(-c2cncc(N[C@H]3CCN(C)CC3(F)F)c2)c1` (single isomer, unassigned) [Example 175] it was 1.7 nM.

Values taken from patent US10138222B2, “Substituted benzamides as RIPK2 inhibitors” (Boehringer Ingelheim International GmbH, priority 2016, dated 2018).
